Test results reported in patent publication US8372854B2, “Pyrrolo[2,3-D]pyrimidine compounds” (Pfizer Inc., priority 2009, dated 2013).

Key:
Format in all cases: biochemical
JAK1 = target: T1, JAK1 (Homo sapiens, UniProt P23458); assay: JAK enzymatic assay (peptide mobility shift), JAK1; conditions: recombinant JAK1 20 nM, ATP 40 μM, 1 μM IRS-1 peptide, 240 minutes
T1 construct: purchased Invitrogen Corporation, Madison, Wis; PV4775
From the text: (§1) Recombinant JAK1 (Catalog Number PV4775), JAK2 (Catalog Number PV4210) and JAK3 (Catalog Number PV3855) were purchased from (Invitrogen Corporation, Madison, Wis.). Tyk2 (His-Tyk2 (888-1182, C936S, C1142S)) used in this study was expressed and purified at Pfizer Laboratories. Adenosine 5′-triphosphate (ATP) was obtained from (Sigma Chemical Company, St. Louis, Mo.). The JAKtide peptide (peptide sequence, FITC-[…]) used for the JAK2 and JAK3 assays and the IRS-1 peptide (peptide sequence, 5-FAM-[…]) used for the JAK1 and Tyk2 assays were purchased from (American Peptide Company, Sunnyvale, Calif.). Coating Reagent 3 was purchased from (Caliper Life Sciences, Hopkinton, Mass.).
(§2) A peptide mobility shift assay was used to quantify the phosphorylation of the JAKtide (JAK2 and JAK3) or the IRS-1 peptide ([…] and Tyk2). Reactions were carried out in a 384-well plate (Matrical MP-101) in a 10 μL total volume. Reaction mixtures contained 20 mM HEPES, pH 7.4, 10 mM magnesium chloride, 0.01% bovine serum albumin (BSA), 0.0005% Tween-20, ATP (4 μM for JAK2 and JAK3, 40 μM for JAK1 and 7 μM for Tyk2)), 2% DMSO and 1 μM peptide substrate (JAKtide for JAK2 and JAK3 and IRS-1 peptide for JAK1 and Tyk2). Compounds were diluted serially in 100% dimethyl sulfoxide and tested in an 11 point dose response in duplicate or quadruplicate (200 nl of compound/DMSO was added per 10 μL reaction). The reactions were initiated by the addition of enzyme to the final concentration of 2 nM JAK2, 1 nM JAK3, 12 nM Tyk2 or 20 nM JAK1. The assay was run for 240 minutes for JAK1, 150 minutes for JAK2, 90 minutes for JAK3 and 70 minutes for Tyk2. The assays were stopped at the specified times with 20 uL of 140 mM HEPES, 22.5 mM EDTA and 0.15% Coating Reagent 3. The plates were placed on a LabChip 3000 (LC3000) instrument from (Caliper Life Sciences) to measure the formation of phosphorylated peptide. Data was analyzed using Hits Well Analyzer Software from (Caliper Life Sciences) to obtain the amount of product formed.
(§3) Data was then imported into an internal application where each data point is expressed as % inhibition based on uninhibited and no enzyme controls. Dose-response data is then fit using a 4 parameter logistic equation (Equation 1) to determine an IC50.
(§4) Where max is the fitted uninhibited value, min is the fitted complete inhibition value, and s is the slope factor.

JAK3 = target: T2, JAK3 (Homo sapiens, UniProt P52333); assay: JAK enzymatic assay (peptide mobility shift), JAK3; conditions: recombinant JAK3 1 nM, ATP 4 μM, 1 μM JAKtide peptide, 90 minutes
T2 construct: purchased Invitrogen Corporation, Madison, Wis; PV3855
T2 sequence (P52333 1-1124): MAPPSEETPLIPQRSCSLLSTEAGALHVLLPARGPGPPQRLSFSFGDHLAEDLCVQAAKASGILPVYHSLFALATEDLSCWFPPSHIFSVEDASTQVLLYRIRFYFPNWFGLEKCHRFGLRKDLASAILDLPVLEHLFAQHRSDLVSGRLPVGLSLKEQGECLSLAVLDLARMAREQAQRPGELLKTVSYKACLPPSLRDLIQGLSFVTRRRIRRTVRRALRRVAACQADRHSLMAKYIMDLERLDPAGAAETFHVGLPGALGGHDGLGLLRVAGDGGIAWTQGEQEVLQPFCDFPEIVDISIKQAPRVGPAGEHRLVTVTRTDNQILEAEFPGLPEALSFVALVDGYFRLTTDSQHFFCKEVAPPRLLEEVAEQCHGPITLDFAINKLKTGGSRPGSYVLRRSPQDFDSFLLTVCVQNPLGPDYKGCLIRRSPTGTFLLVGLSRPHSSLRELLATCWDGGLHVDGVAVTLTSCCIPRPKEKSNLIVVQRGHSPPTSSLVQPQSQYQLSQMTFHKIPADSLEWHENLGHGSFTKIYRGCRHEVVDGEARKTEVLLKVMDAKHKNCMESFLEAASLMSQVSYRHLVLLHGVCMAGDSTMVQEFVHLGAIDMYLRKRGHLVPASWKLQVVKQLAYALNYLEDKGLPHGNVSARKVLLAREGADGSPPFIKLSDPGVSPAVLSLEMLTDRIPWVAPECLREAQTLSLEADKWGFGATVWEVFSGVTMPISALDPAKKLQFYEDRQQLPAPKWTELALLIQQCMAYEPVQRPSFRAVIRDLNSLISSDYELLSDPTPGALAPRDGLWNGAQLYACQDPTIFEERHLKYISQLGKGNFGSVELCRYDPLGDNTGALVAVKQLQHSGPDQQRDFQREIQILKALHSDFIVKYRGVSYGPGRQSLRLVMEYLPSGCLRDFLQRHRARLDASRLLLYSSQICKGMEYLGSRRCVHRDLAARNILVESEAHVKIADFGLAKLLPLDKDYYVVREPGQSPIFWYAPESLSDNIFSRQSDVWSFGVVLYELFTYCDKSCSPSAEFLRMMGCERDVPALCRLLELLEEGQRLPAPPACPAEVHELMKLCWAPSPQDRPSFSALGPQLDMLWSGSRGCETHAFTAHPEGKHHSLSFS
From the text: Recombinant JAK1 (Catalog Number PV4775), JAK2 (Catalog Number PV4210) and JAK3 (Catalog Number PV3855) were purchased from (Invitrogen Corporation, Madison, Wis.). Tyk2 (His-Tyk2 (888-1182, C936S, C1142S)) used in this study was expressed and purified at Pfizer Laboratories. Adenosine 5′-triphosphate (ATP) was obtained from (Sigma Chemical Company, St. Louis, Mo.). […] Coating Reagent 3 was purchased from (Caliper Life Sciences, Hopkinton, Mass.).
as §2, §3, §4

JAK2 = target: T3, JAK2 (Homo sapiens, UniProt O60674); assay: JAK enzymatic assay (peptide mobility shift), JAK2; conditions: recombinant JAK2 2 nM, ATP 4 μM, 1 μM JAKtide peptide, 150 minutes
T3 construct: purchased Invitrogen Corporation, Madison, Wis; PV4210
From the text: as §1, §2, §3, §4

T3 sequence (O60674 whole entry): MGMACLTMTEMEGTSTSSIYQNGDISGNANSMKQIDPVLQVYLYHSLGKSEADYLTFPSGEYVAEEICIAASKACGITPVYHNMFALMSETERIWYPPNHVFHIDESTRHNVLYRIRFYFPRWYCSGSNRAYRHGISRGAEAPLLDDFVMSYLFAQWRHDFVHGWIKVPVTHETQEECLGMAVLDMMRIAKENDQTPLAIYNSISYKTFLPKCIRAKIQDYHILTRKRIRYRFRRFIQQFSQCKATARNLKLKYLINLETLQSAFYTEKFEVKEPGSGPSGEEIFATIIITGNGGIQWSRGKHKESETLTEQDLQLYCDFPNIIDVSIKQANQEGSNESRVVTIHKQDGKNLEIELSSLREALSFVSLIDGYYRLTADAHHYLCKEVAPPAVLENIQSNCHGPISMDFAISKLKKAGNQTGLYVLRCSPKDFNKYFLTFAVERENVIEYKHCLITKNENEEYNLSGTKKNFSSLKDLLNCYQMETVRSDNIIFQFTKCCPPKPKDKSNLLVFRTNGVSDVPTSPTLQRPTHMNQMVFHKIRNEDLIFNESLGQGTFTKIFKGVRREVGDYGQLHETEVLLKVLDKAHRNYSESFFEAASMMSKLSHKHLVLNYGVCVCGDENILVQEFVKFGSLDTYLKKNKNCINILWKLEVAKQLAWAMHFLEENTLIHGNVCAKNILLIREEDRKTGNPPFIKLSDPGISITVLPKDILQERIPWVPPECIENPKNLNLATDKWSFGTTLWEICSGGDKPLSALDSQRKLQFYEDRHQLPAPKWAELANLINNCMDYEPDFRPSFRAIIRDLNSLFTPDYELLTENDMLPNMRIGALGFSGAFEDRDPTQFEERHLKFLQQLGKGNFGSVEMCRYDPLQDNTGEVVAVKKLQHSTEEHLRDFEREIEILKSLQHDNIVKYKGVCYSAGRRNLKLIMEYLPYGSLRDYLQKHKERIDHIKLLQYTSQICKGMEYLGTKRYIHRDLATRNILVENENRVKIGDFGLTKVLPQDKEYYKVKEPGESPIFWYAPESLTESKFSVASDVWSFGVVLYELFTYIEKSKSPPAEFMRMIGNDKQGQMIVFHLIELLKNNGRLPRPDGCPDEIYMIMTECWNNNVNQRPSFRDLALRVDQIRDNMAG
T1 sequence (P23458 whole entry): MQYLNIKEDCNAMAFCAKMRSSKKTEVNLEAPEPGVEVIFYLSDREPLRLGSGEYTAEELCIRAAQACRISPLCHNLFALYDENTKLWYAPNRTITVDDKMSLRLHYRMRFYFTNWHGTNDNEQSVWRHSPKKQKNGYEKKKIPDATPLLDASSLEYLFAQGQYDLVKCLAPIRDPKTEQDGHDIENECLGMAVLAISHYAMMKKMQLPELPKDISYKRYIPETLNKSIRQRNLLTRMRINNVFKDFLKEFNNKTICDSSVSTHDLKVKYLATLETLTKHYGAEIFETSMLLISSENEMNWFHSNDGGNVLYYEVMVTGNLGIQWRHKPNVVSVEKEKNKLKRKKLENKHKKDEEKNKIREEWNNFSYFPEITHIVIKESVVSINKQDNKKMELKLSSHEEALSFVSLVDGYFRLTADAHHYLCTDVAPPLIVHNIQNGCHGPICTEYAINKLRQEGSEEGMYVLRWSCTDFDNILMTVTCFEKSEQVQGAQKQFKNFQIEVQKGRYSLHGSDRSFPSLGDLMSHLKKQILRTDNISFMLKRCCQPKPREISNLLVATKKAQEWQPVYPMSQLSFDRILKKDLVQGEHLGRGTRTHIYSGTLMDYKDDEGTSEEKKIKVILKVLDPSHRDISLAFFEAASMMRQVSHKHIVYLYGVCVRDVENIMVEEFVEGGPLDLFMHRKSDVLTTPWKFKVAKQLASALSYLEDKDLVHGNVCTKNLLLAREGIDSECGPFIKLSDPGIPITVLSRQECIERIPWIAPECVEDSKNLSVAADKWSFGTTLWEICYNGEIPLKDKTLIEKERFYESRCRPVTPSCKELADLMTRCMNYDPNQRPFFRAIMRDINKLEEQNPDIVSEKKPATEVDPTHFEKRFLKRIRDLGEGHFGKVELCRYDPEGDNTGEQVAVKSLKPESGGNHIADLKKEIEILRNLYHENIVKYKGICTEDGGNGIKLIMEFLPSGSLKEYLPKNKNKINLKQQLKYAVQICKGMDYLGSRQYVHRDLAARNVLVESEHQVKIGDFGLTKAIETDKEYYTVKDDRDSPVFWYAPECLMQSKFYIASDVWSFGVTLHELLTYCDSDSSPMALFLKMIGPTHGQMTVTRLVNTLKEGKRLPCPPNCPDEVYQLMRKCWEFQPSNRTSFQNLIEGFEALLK

| IC50 (JAK1) | IC50 (JAK3) | IC50 (JAK2) | SMILES |
| --- | --- | --- | --- |
| 14.5 nM | 427 nM | 55.7 nM | CN(c1ncnc2[nH]ccc12)[C@H]1CC[C@H](CS(=O)(=O)NCCc2ccc(Cl)c(Cl)c2)CC1 [Example 42, N-[2-(3,4-dichlorophenyl)-ethyl]-1-{trans-4-[methyl-(7H-pyrrolo[2,3-d]pyrimidin-4-yl)amino]cyclohexyl}-methanesulfonamide] |
| 11.6 nM | 292 nM | 123 nM | CN(c1ncnc2[nH]ccc12)[C@H]1CC[C@H](CS(=O)(=O)NC2CC(NC(=O)OC(C)(C)C)C2)CC1 (stereo partly drawn) [Example 41, tert-butyl (3-{[({trans-4-[methyl(7H-pyrrolo[2,3-d]-pyrimidin-4-yl)amino]-cyclohexyl}methyl)sulfonyl]amino}cyclobutyl)-carbamate] |
| 23.3 nM | 237 nM | 20.2 nM | Cc1cc(C)nc(CNS(=O)(=O)C[C@H]2CC[C@H](N(C)c3ncnc4[nH]ccc34)CC2)n1 [Example 51, N-[(4,6-dimethylpyrimidin-2-yl)methyl]-1-{trans-4-[methyl(7H-pyrrolo[2,3-d]-pyrimidin-4-yl)amino]cyclohexyl}-methanesulfonamide] |
| 10.5 nM | 531 nM | 39.7 nM | CN(c1ncnc2[nH]ccc12)[C@H]1CC[C@H](CS(=O)(=O)NCC(C)(F)c2cccc(F)c2)CC1 (stereo partly drawn) [Example 9, N-[2-fluoro-2-(3-fluoro-phenyl)propyl]-1-{trans-4-[methyl(7H-pyrrolo[2,3-d]-pyrimidin-4-yl)amino]-cyclohexyl}-methanesulfonamide] |
| 15.6 nM | 355 nM | 18.4 nM | CN(c1ncnc2[nH]ccc12)[C@H]1CC[C@H](CS(=O)(=O)N[C@@H]2CCC[C@@H]2c2ccc(F)cc2)CC1 [Example 46, N-[(1R,2R)-2-(4-fluoro-phenyl)cyclopentyl]-1-{trans-4-[methyl(7H-pyrrolo[2,3-d]pyrimidin-4-yl)amino]cyclohexyl}-methanesulfonamide] |
| 16.5 nM | 221 nM | 47.6 nM | Cc1ccc(NS(=O)(=O)C[C@H]2CC[C@H](N(C)c3ncnc4[nH]ccc34)CC2)cn1 [Example 30, N-(6-methylpyridin-3-yl)-1-{trans-4-[methyl(7H-pyrrolo[2,3-d]pyrimidin-4-yl)amino]cyclohexyl}-methanesulfonamide] |
| 21.4 nM | 526 nM | 64.2 nM | C[C@H](O)CNS(=O)(=O)C[C@H]1CC[C@H](N(C)c2ncnc3[nH]ccc23)CC1 [Example 49, N-[(2S)-2-hydroxypropyl]-1-{trans-4-[methyl(7H-pyrrolo[2,3-d]pyrimidin-4-yl)amino]cyclohexyl}-methanesulfonamide] |
| 6.76 nM | 224 nM | 24.7 nM | Cc1cc2cc(CNS(=O)(=O)C[C@H]3CC[C@H](N(C)c4ncnc5[nH]ccc45)CC3)ccc2[nH]1 [Example 34, N-[(2-methyl-1H-indol-5-yl)methyl]-1-{trans-4-[methyl(7H-pyrrolo[2,3-d]-pyrimidin-4-yl)amino]-cyclohexyl}-methanesulfonamide] |
| 4.34 nM | 144 nM | 23.6 nM | CN(c1ncnc2[nH]ccc12)[C@H]1CC[C@H](CS(=O)(=O)N[C@H]2C[C@@H]2c2ccccc2)CC1 [Example 32, 1-{trans-4-[methyl(7H-pyrrolo[2,3-d]pyrimidin-4-yl)amino]cyclohexyl}-N-[(1S,2R)-2-phenylcyclopropyl]-methanesulfonamide] |
| 11 nM | 301 nM | 34.1 nM | COc1cccc(CCNS(=O)(=O)C[C@H]2CC[C@H](N(C)c3ncnc4[nH]ccc34)CC2)c1 [Example 10, N-[2-(3-methoxyphenyl)-ethyl]-1-{trans-4-[methyl-(7H-pyrrolo[2,3-d]pyrimidin-4-yl)amino]cyclohexyl}-methanesulfonamide] |
| 18.6 nM | 228 nM | 57.4 nM | CN(c1ncnc2[nH]ccc12)[C@H]1CC[C@H](CS(=O)(=O)Nc2ccc(Cl)nc2)CC1 [Example 25, N-(6-chloropyridin-3-yl)-1-{trans-4-[methyl(7H-pyrrolo[2,3-d]pyrimidin-4-yl)-amino]cyclohexyl}-methanesulfonamide] |
| 1.82 nM | 166 nM | 14.9 nM | CN(c1ncnc2[nH]ccc12)[C@H]1CC[C@H](CS(=O)(=O)NCCc2ccc(S(N)(=O)=O)cc2)CC1 [Example 2, 4-(2-{[({trans-4-[methyl(7H-pyrrolo[2,3-d]pyrimidin-4-yl)amino]cyclohexyl}methyl)sulfonyl]amino}ethyl)benzene-sulfonamide] |
| 1.65 nM | 55.8 nM | 4.55 nM | CN(c1ncnc2[nH]ccc12)[C@H]1CC[C@H](CS(=O)(=O)Nc2ccc3[nH]ccc3c2)CC1 [Example 24, N-1H-indol-5-yl-1-{trans-4-[methyl(7H-pyrrolo[2,3-d]-pyrimidin-4-yl)amino]-cyclohexyl}-methanesulfonamide] |
| 6.05 nM | 403 nM | 32.3 nM | CN(c1ncnc2[nH]ccc12)[C@H]1CC[C@H](CS(=O)(=O)NCC(C)(F)c2ccc(F)cc2)CC1 (stereo partly drawn) [Example 8, N-[2-fluoro-2-(4-fluoro-phenyl)propyl]-1-{trans-4-[methyl(7H-pyrrolo[2,3-d]-pyrimidin-4-yl)amino]-cyclohexyl}-methanesulfonamide] |
| 2.25 nM | 257 nM | 28.6 nM | CN(c1ncnc2[nH]ccc12)[C@H]1CC[C@H](CS(=O)(=O)NCCc2ccc(O)cc2)CC1 [Example 3, N-[2-(4-hydroxyphenyl)-ethyl]-1-{trans-4-[methyl-(7H-pyrrolo[2,3-d]pyrimidin-4-yl)amino]cyclohexyl}-methanesulfonamide] |
| 17.4 nM |  | 55.3 nM | CN(c1ncnc2[nH]ccc12)[C@H]1CC[C@H](CS(=O)(=O)NCCc2ccc(C(F)(F)F)cc2F)CC1 [Example 13, N-{2-[2-fluoro-4-(trifluoro-methyl)phenyl]ethyl}-1-{trans-4-[methyl(7H-pyrrolo[2,3-d]pyrimidin-4-yl)amino]cyclohexyl}-methanesulfonamide] |
